Data: article PMC12040169 (PLOS Biology, 2025)

Experiment: in vitro
Conditions: human, hela cells, % viability

| Compound | viability at 28.5 h, 10 µM | viability at 28.5 h, 10 µM (bulk resorufin, single well) |
| --- | --- | --- |
| COc1cccc(C2(NC(=O)CCn3cccn3)CCCC2)c1 [CBK283660] | 94.5% | – |
| Cc1nn(C)cc1-c1cncn1CCN(C)C1CCCC1 [CBK281780] | 95.8% | – |
| O=C(c1cnc2ccccc2c1)N1CCC(F)CC1 [CBK200273] | 102% | – |
| CCOc1ccc(C(CC(=O)O)C(=O)O)cc1 (stereo not shown) [CBK261363] | 96.7% | – |
| CCN(CC)CCCCSc1ccc(O)cc1 [CBK261785C] | 95.7% | – |
| Cc1cc2nc(C3CCCN3C(=O)CN3CCCCC3)[nH]c2cc1C (stereo not shown) [CBK282944] | 91.3% | – |
| Cc1ccc(S(=O)(=O)N(C)CCCC(=O)n2cnc3ccccc32)cc1 [CBK264457] | 104% | – |
| O=C(O)CCN1C(=O)/C(=C/c2ccc(C(=O)O)cc2)SC1=S [CBK262785] | 93.2% | – |
| CCOC(=O)C1(C2CCCCC2)CCN(C(=O)CCC(=O)O)CC1 [CBK136939] | 95.9% | – |
| Cc1oc2c(c1C(=O)NCC(=O)NCC(=O)O)CCCC2 [CBK264015] | 97.6% | – |
| FC(F)(F)c1cccc(OCCCc2ccncc2)n1 [CBK115795] | 98.8% | – |
| Cc1cccc2cnc(C3CCN(C(=O)c4cnn(C)c4C)CC3)cc12 [CBK285196] | 88.2% | – |
| CN1CCN(c2cccc(-c3ccsc3)n2)CC1 [CBK036916] | 90.2% | – |
| CC(C)(CC(=O)O)CC(=O)Nc1ccc(N2CCCC2=O)cc1 [CBK299787] | 109% | – |
| CC(C)(C)COC(=O)N1CCC2(CC1)CC(=O)N(Cc1ccc(S(C)(=O)=O)cc1)C2=O [CBK155949] | 91.4% | – |
| Cc1nc2ccc(C(=O)NC(c3ccccc3)c3cccnc3)cc2[nH]1 (stereo not shown) [CBK283259] | 103% | – |
| O=[N+]([O-])c1ccc(CN2CCN(Cc3cc(Br)ccc3O)CC2)cc1 [CBK263652G] | 88.9% | – |
| O=C(c1ccc(N2CCN(C3CC(=O)N(Cc4cccs4)C3=O)CC2)cc1)c1cccnc1 (stereo not shown) [CBK269040] | 98.5% | – |
| O=[N+]([O-])c1cnc(NS(=O)(=O)c2ccc(-c3cc(C(F)(F)F)on3)s2)s1 [CBK067545] | 103% | – |
| CC(C)N1CCC(CNC(=O)c2cccc(N3CCCC3=O)c2)CC1 [CBK282641] | 104% | – |
| Cc1csc(-c2cn3ccnc3c(N3CCN(c4ccccn4)CC3)n2)c1 [CBK066530] | 95.6% | – |
| N#Cc1cnn2c(O)cc(Cc3ccccc3)nc12 [CBK287942] | 110% | – |

| Compound | viability at 28.5 h, 10 µM | viability at 28.5 h, 10 µM (bulk resorufin, single well) |
| --- | --- | --- |
| CN(C)S(=O)(=O)c1cccc(C(=O)NCCc2ccccc2)c1 [CBK267793] | 91.3% | – |
| Cn1ccc(CN2CCOC(c3nc(C(C)(C)C)cs3)C2)cc1=O (stereo not shown) [CBK305771] | 108% | – |
| CC(C)NC(=O)N1CCCC1c1nc(-c2ccc(Cl)cc2)c2ccccn12 (stereo not shown) [CBK046947] | 84% | – |
| Cc1[nH]c(=O)[nH]c(=O)c1S(=O)(=O)Nc1ccc(S(N)(=O)=O)cc1 [CBK262123] | 91.7% | – |
| COc1ccc(C(C)C)cc1-c1cn2ccnc2c(Nc2cccc(OC(F)(F)C(F)F)c2)n1 [CBK038049] | 95.9% | – |
| CCN(CC)C(=O)c1ccc(N)cc1C [CBK022686C] | 93.5% | – |
| Cc1nc(-c2ccco2)nc2sc(C(=O)N(C)CC3COc4ccccc4O3)c(C)c12 (stereo not shown) [CBK295347] | 105% | – |
| O=C(/C=C/c1cn([C@H]2C[C@@H](O)[C@@H](CO)O2)c(=O)[nH]c1=O)ON1C(=O)CCC1=O [CBK201188] | 99.3% | – |
| CCOc1ccccc1NC(=O)NCCSCc1ccco1 [CBK057501] | 94.5% | – |
| COc1ccc(CN(Cc2cccs2)[C@@H]2COC[C@H]2c2ccc(F)cc2)cc1 [CBK286487] | 90.6% | – |
| Cc1cc2c(cc3c(=O)n(CCN4CCCC4)nc(C)n32)s1 [CBK284126] | 95.5% | – |
| CCc1nn(CC(=O)NCC2CC2)c(=O)c2cc3sc(C)cc3n12 [CBK284100] | 85.7% | – |
| Cc1cc(C)n(CC2CCCCN2Cc2ccccn2)n1 (stereo not shown) [CBK304853] | 86.7% | – |
| COc1cncc(-c2cncc(N3CCN(CCN(C)C)CC3)n2)c1 [CBK065393] | 120% | – |
| O=C(Oc1ccc2c(c1)C1C=CCC1C(C(=O)O)N2)c1ccc(Cl)cc1Cl (stereo not shown) [CBK265285] | 94.2% | – |
| CCCCN(CCCC)c1nccnc1Cl [CBK001576] | 94.7% | – |
| COc1ccc([C@H]2C3CCCCC3[C@@H]2NC(=O)C2CCCO2)cc1 (stereo partly shown) [CBK282990] | 108% | – |
| CCN(CC)C(=O)C1CCCN(C(=O)Nc2ccc3[nH]ccc3c2)C1 (stereo not shown) [CBK156133] | 98% | – |
| CC(=O)Nc1cccc(-c2cncc(NCc3ccco3)n2)c1 [CBK065290] | 100% | – |
| COc1ccc2[nH]c3c(c2c1)CCN(C(C)=O)C31CCNCC1 [CBK284429] | 79.1% | – |
| N=C1NC(=O)C(CC(=O)Nc2cccc([N+](=O)[O-])c2)S1 (stereo not shown) [CBK263944] | 87.9% | – |
| CC(NC(=O)C1CCN(Cc2nccs2)CC1)c1ccc(F)cc1 (stereo not shown) [CBK148056] | 102% | – |

| Compound | viability at 28.5 h, 10 µM | viability at 28.5 h, 10 µM (bulk resorufin, single well) |
| --- | --- | --- |
| COc1cccc(C(=O)Oc2ccc3c(=O)c(-c4nc5ccccc5s4)c(C)oc3c2)c1 [CBK265540] | 103% | – |
| C/C=C/c1ccc(OCCCSc2nc(C)cc(O)n2)c(OC)c1 [CBK267413] | 93.5% | – |
| COc1nnc(-c2ccc(C)cc2)c2ccccc12 [CBK263466] | 92% | – |
| CC(=O)N1CCc2cc(NCc3nc4ccccc4n3C(C)c3ccccc3)ccc21 (stereo not shown) [CBK285621] | 81.7% | – |
| O=C(CSc1nc(-c2cccs2)cc(C(F)(F)F)n1)NN1CCOCC1 [CBK307375] | 98.1% | – |
| O=c1n(-c2ccc(Cl)c(Cl)c2)ccn1S(=O)(=O)CCc1cccc2ccccc12 [CBK106668] | 106% | – |
| O=C(Cc1ccccc1)N1CCC(CC(=O)N2CCC3(CCCCC3)C2)CC1 [CBK286031] | 93.8% | – |
| COc1ccc(C(=O)N2CCN(C)CC2)cc1Nc1cncc(-c2cc3ccccc3o2)n1 [CBK155266T] | 89.9% | – |
| COc1cc(Nc2cncc(-c3cccnc3)n2)cc(OC)c1OC [CBK065201] | 93.7% | – |
| CN(Cc1ccc2c(c1)OCCO2)C(=O)CSc1n[nH]c(=O)n1Cc1ccccc1 [CBK297876] | 82.1% | – |
| CCOC(=O)c1cccc(NC(=O)CSc2nc3cccnc3[nH]2)c1 [CBK269354] | 95.1% | – |
| CC(C)[C@H](CO)Nc1nccnc1-c1cccs1 [CBK089047] | 99% | – |
| COc1cc(/C=N/NC(=O)Cc2nnc(N)s2)cc(OC)c1OC [CBK262027] | 109% | – |
| C#CCOc1ccc(/C=N/N=C(\N)c2nonc2N)cc1OC [CBK264765] | 109% | – |
| Cc1ccc(-n2c(=O)[nH]c3c(C(N)=O)nc(CC(C)C)nc32)cc1 [CBK287294] | 102% | – |
| CC(=O)c1ccc(-c2nc(NC(=O)c3cccc([N+](=O)[O-])c3)cnc2-c2ccc(F)c(Cl)c2)s1 [CBK036816] | 97.2% | – |
| OC(Cn1cnc(-c2ccccc2)c1-c1ccccc1)Cn1c2ccccc2c2ccccc21 (stereo not shown) [CBK261416] | 78.2% | – |
| O=C(Cn1c(C2CCOCC2)cc2cccnc21)N1CCCCCC1 [CBK284674] | 105% | – |
| CCCNC(=O)Cn1nc(C)n2c(cc3ccsc32)c1=O [CBK284061] | 78.2% | – |
| O=C(O)c1ccc(/C=N/N2CCN(Cc3ccc(Cl)cc3)CC2)cc1 [CBK263561] | 90.5% | – |
| COCCNC(=O)[C@@H](C)C1CC[C@@]2(C)CC[C@H](NS(C)(=O)=O)[C@@H](C)[C@@H]2[C@H]1O (stereo partly shown) [CBK289457] | 93.5% | – |
| O=C(Nc1ccc(F)cc1)c1ccc(NS(=O)(=O)Cc2ccccc2[N+](=O)[O-])cc1 [CBK050405] | 93% | – |

| Compound | viability at 28.5 h, 10 µM | viability at 28.5 h, 10 µM (bulk resorufin, single well) |
| --- | --- | --- |
| CC1CCCC(C)N1C(=O)Cn1cnc2c(Cl)cc(Cl)cc2c1=O (stereo not shown) [CBK306222] | 85.7% | – |
| CCCCNC(=O)N1CCN(c2ccccc2Cl)CC1 [CBK043777] | 106% | – |
| COc1ccc(/C(C)=N/NC(=N)SC2CC(=O)N(c3ccc(C(=O)O)cc3)C2=O)cc1F (stereo not shown) [CBK262805] | 107% | – |
| CCNC(=O)N1CC2(CCN(CCOc3ccccc3)CC2)c2ccccc21 [CBK122701] | 93.9% | – |
| O=C(OCCc1c[nH]c2ccccc12)N1CCOCC1 [CBK200415] | 106% | – |
| CCOc1cccc(N2C(=O)NC(=O)/C(=C/NCCc3c[nH]c4ccccc34)C2=O)c1 [CBK265541] | – | 106% |
| CCC(=O)N1CCN(c2nc3ccc(OC)cc3s2)CC1 [CBK287721] | 92.2% | – |
| Cc1nc(NS(=O)(=O)Cc2ccccc2[N+](=O)[O-])sc1C(=O)O [CBK045564] | 89.5% | – |
| CN1CCN(CCC(=O)N/N=C/c2ccccc2O)CC1 [CBK261497] | 93.1% | – |
| O=C(CSc1nnc(COc2ccccc2)o1)c1cccc([N+](=O)[O-])c1 [CBK267868] | 104% | – |
| O=C1CNC(=O)C2(C/C=C/C[C@H]3COCC[C@H]3N1)CCN(Cc1cccc3[nH]ccc13)CC2 [CBK292073] | 110% | – |
| Clc1ccc(COc2nccnc2OC2CCN(CCOc3ccccc3)CC2)cc1Cl [CBK083121T] | 95.9% | – |
| Nc1ncc(-c2cccnc2)nc1-c1ccc(C(=O)N2CCOCC2)cc1 [CBK064059] | 93.4% | – |
| COc1ccc(-c2nnc(SCCC(=O)O)[nH]2)cc1 [CBK300506] | 93.4% | – |
| CN1CCCC1CCNC(=O)c1ccc(-c2ccoc2)nc1 (stereo not shown) [CBK156255] | 99.8% | – |
| COC(=O)[C@H]1CN(C(=O)CN2CCCC2=O)C[C@@H]1c1ccccc1F [CBK283518] | 89.2% | – |
| CNC(=O)c1ccc(-c2ccco2)nc1N1CCOCC1 [CBK106212] | 108% | – |
| OCCN1CCC2(CC1)CN(CCO)c1ccccc12 [CBK126759] | 87.4% | – |
| CCCCc1noc(C(C)S(=O)(=O)Cc2csc(CCCC)n2)n1 (stereo not shown) [CBK305431] | 110% | – |
| O=C(NC(=S)N1CCN(CCN2C(=O)c3cccc4cccc(c34)C2=O)CC1)c1ccc2c(c1)OCO2 [CBK263577] | 82.2% | – |
| CC(C#CCN(C)C)N1C(=O)CCC1C (stereo not shown) [CBK008291G] | 109% | – |
| CCN(CC(=O)Nc1ccccc1OC)S(=O)(=O)c1ccccc1 [CBK269428] | 97.1% | – |
